Test: recombinant barcode read abundance after kanamycin selection (control-corrected) (log10(CPM+1)); higher = more efficient recombination; sequences stand for … in AGTGCAGAGAAAATCGGCCAGTTTTCTCTGCCTGCAGTCCGCATGCCGT…AGATTTATGCAGCGGACTGCCTTTCTCCCAAAGTGATAAACCGGACAGTATCATGGACCGGTTTTCCCGGTAATCCGTATTTGCAAGGTTGGTTTCACT; site = the 11-nt target
Description: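 Pooled E. coli target-specificity screen for the IS621 bridge recombinase. Each library plasmid pairs an 11-nt target (CT core) with a bridge RNA whose target-binding loop (9-nt LTG + 4-nt RTG) is reprogrammed; the rest of the 177-nt WT IS621 bridge RNA scaffold is fixed. The plasmid is co-electroporated with a WT donor plasmid; recombinase is induced with 0.1 mM IPTG and recombinants are selected on kanamycin. Recombinant barcodes are sequenced, converted to CPM, averaged over two biological replicates and corrected by the unselected control CPM. Molecule = full bridge RNA written as DNA: LTG = specificity nt 1-9, RTG = reverse complement of specificity nt 8-11, in the WT scaffold.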
In the case of “ACTTAGTCTTGGGTTCTAACCTGTTGCTA (site ACTTAGTCTTA)”, the “recombinant barcode read abundance (log10)” value is reported as 0.277.
With “ACTTGAGCTTGGGTTCTAACCTGTTGCAG (site ACTTGAGCTCT)” the “recombinant barcode read abundance (log10)” value was 1.48.
For “ACTTGAGCTTGGGTTCTAACCTGTTGCAG (site CACGCTCCTAC)”, the “recombinant barcode read abundance (log10)” value was 0.167.
In the case of “ACTTGTACTTGGGTTCTAACCTGTTGCAT (site ACTTGGACTAT)”, the “recombinant barcode read abundance (log10)” value is reported as 0.0152.
With “ACTTGTACTTGGGTTCTAACCTGTTGCAT (site ACTTGTACTAT)” the “recombinant barcode read abundance (log10)” value was 1.22.
For “ACTTTACCTTGGGTTCTAACCTGTTGCCT (site ACTTTACCTAG)”, the “recombinant barcode read abundance (log10)” value was 0.188.
With “ACTTTACCTTGGGTTCTAACCTGTTGCCT (site CCTTTACCTAG)” the “recombinant barcode read abundance (log10)” value was 0.324.
With “ACTTTACCTTGGGTTCTAACCTGTTGCCT (site GCTTTACCTAG)” the “recombinant barcode read abundance (log10)” value was 0.0495.
For “ACTTTACCTTGGGTTCTAACCTGTTGCCT (site TCTTTACCTAG)”, the “recombinant barcode read abundance (log10)” value was 0.186.
For “AGAACACCTTGGGTTCTAACCTGTTGCTT (site AGAACACCTAA)”, the “recombinant barcode read abundance (log10)” value was 0.525.
In the case of “AGAACACCTTGGGTTCTAACCTGTTGCTT (site GAGGAGTCTCG)”, the “recombinant barcode read abundance (log10)” value is reported as 0.13.
For “AGAACTACTTGGGTTCTAACCTGTTGCCT (site AGAACTACTAG)”, the “recombinant barcode read abundance (log10)” value was 0.384.
With “AGAACTACTTGGGTTCTAACCTGTTGCCT (site AGGACTACTAG)” the “recombinant barcode read abundance (log10)” value was 0.162.
With “AGAACTCCTTGGGTTCTAACCTGTTGCGA (site AGAACTCCTTC)” the “recombinant barcode read abundance (log10)” value was 1.03.
In the case of “AGAACTCCTTGGGTTCTAACCTGTTGCGA (site CTGGAGACTAA)”, the “recombinant barcode read abundance (log10)” value is reported as 0.42.
With “AGAAGATCTTGGGTTCTAACCTGTTGCCT (site AGAAGATCTAG)” the “recombinant barcode read abundance (log10)” value was 0.706.
In the case of “AGAAGATCTTGGGTTCTAACCTGTTGCCT (site TACCTTACTCT)”, the “recombinant barcode read abundance (log10)” value is reported as 0.0563.
For “AGAAGTCCTTGGGTTCTAACCTGTTGCAG (site AGAAGTCCTCA)”, the “recombinant barcode read abundance (log10)” value was 0.83.
In the case of “AGAAGTCCTTGGGTTCTAACCTGTTGCAG (site AGAAGTCCTCC)”, the “recombinant barcode read abundance (log10)” value is reported as 0.246.
In the case of “AGAAGTCCTTGGGTTCTAACCTGTTGCAG (site AGAAGTCCTCG)”, the “recombinant barcode read abundance (log10)” value is reported as 0.366.
With “AGAAGTCCTTGGGTTCTAACCTGTTGCAG (site AGAAGTCCTCT)” the “recombinant barcode read abundance (log10)” value was 1.56.
For “AGAATCCCTTGGGTTCTAACCTGTTGCAT (site AGAATCCCTAT)”, the “recombinant barcode read abundance (log10)” value was 1.49.
For “AGAATCCCTTGGGTTCTAACCTGTTGCAT (site ATAAACCCTAT)”, the “recombinant barcode read abundance (log10)” value was 0.0539.
In the case of “AGACAGTCTTGGGTTCTAACCTGTTGCCA (site AGACAGTCTTG)”, the “recombinant barcode read abundance (log10)” value is reported as 0.311.
In the case of “AGACAGTCTTGGGTTCTAACCTGTTGCCA (site GACTGAGCTCC)”, the “recombinant barcode read abundance (log10)” value is reported as 0.0895.
In the case of “AGACGTACTTGGGTTCTAACCTGTTGCCT (site AGACGTACTAG)”, the “recombinant barcode read abundance (log10)” value is reported as 1.65.
In the case of “AGACGTACTTGGGTTCTAACCTGTTGCCT (site AGCCGTACTAG)”, the “recombinant barcode read abundance (log10)” value is reported as 0.102.
For “AGACGTACTTGGGTTCTAACCTGTTGCCT (site AGGCGTACTAG)”, the “recombinant barcode read abundance (log10)” value was 0.128.
With “AGACGTACTTGGGTTCTAACCTGTTGCCT (site AGTCGTACTAG)” the “recombinant barcode read abundance (log10)” value was 0.0904.
With “AGACGTCCTTGGGTTCTAACCTGTTGCTT (site AGACATCCTAA)” the “recombinant barcode read abundance (log10)” value was 0.197.
In the case of “AGACGTCCTTGGGTTCTAACCTGTTGCTT (site AGACCTCCTAA)”, the “recombinant barcode read abundance (log10)” value is reported as 0.162.
For “AGACGTCCTTGGGTTCTAACCTGTTGCTT (site AGACGTCCTAA)”, the “recombinant barcode read abundance (log10)” value was 1.03.
With “AGACGTCCTTGGGTTCTAACCTGTTGCTT (site AGACTTCCTAA)” the “recombinant barcode read abundance (log10)” value was 0.15.
With “AGAGCTCCTTGGGTTCTAACCTGTTGCGG (site AGAGCTCCTCC)” the “recombinant barcode read abundance (log10)” value was 1.28.
In the case of “AGAGCTCCTTGGGTTCTAACCTGTTGCGG (site AGTGCTCCTCC)”, the “recombinant barcode read abundance (log10)” value is reported as 0.196.
In the case of “AGAGGACCTTGGGTTCTAACCTGTTGCCT (site AGAGGACCTAG)”, the “recombinant barcode read abundance (log10)” value is reported as 2.32.
In the case of “AGAGGACCTTGGGTTCTAACCTGTTGCCT (site TGAGCACCTAG)”, the “recombinant barcode read abundance (log10)” value is reported as 0.213.
In the case of “AGAGGTTCTTGGGTTCTAACCTGTTGCCT (site AAAGGTTCTAG)”, the “recombinant barcode read abundance (log10)” value is reported as 0.141.
With “AGAGGTTCTTGGGTTCTAACCTGTTGCCT (site ACAGGTTCTAG)” the “recombinant barcode read abundance (log10)” value was 0.0172.
For “AGAGGTTCTTGGGTTCTAACCTGTTGCCT (site AGAGGTTCTAG)”, the “recombinant barcode read abundance (log10)” value was 1.58.
For “AGAGGTTCTTGGGTTCTAACCTGTTGCCT (site ATAGGTTCTAG)”, the “recombinant barcode read abundance (log10)” value was 0.271.
In the case of “AGAGTAACTTGGGTTCTAACCTGTTGCAC (site AGAGTAACTGT)”, the “recombinant barcode read abundance (log10)” value is reported as 2.19.
In the case of “AGAGTAACTTGGGTTCTAACCTGTTGCAC (site TCTCGTTCTTA)”, the “recombinant barcode read abundance (log10)” value is reported as 0.063.
With “AGAGTCCCTTGGGTTCTAACCTGTTGCGG (site AGAGTCCCTCC)” the “recombinant barcode read abundance (log10)” value was 3.09.
With “AGAGTCCCTTGGGTTCTAACCTGTTGCGG (site AGAGTCTCTCA)” the “recombinant barcode read abundance (log10)” value was 0.295.
For “AGAGTCTCTTGGGTTCTAACCTGTTGCTG (site AGAGTCCCTCC)”, the “recombinant barcode read abundance (log10)” value was 0.101.
For “AGAGTCTCTTGGGTTCTAACCTGTTGCTG (site AGAGTCTCTCA)”, the “recombinant barcode read abundance (log10)” value was 0.78.
With “AGATACTCTTGGGTTCTAACCTGTTGCCT (site ACATAGTCTAG)” the “recombinant barcode read abundance (log10)” value was 0.428.
For “AGATACTCTTGGGTTCTAACCTGTTGCCT (site AGATACTCTAG)”, the “recombinant barcode read abundance (log10)” value was 2.66.
In the case of “AGATATACTTGGGTTCTAACCTGTTGCTT (site AGATATACTAA)”, the “recombinant barcode read abundance (log10)” value is reported as 0.167.
With “AGATATACTTGGGTTCTAACCTGTTGCTT (site CACCTGTCTCC)” the “recombinant barcode read abundance (log10)” value was 0.0796.
In the case of “AGATCTCCTTGGGTTCTAACCTGTTGCGT (site AGATCTCCTAC)”, the “recombinant barcode read abundance (log10)” value is reported as 0.777.
With “AGATCTCCTTGGGTTCTAACCTGTTGCGT (site TCGAAGTCTTA)” the “recombinant barcode read abundance (log10)” value was 0.0154.
In the case of “AGATGAGCTTGGGTTCTAACCTGTTGCGG (site AAATGGGCTCC)”, the “recombinant barcode read abundance (log10)” value is reported as 0.0978.
With “AGATGAGCTTGGGTTCTAACCTGTTGCGG (site AGATGAGCTCC)” the “recombinant barcode read abundance (log10)” value was 1.51.
For “AGATGTGCTTGGGTTCTAACCTGTTGCCT (site AGATGTGCTAG)”, the “recombinant barcode read abundance (log10)” value was 1.49.
In the case of “AGATGTGCTTGGGTTCTAACCTGTTGCCT (site CACAAACCTCT)”, the “recombinant barcode read abundance (log10)” value is reported as 0.181.
For “AGATTATCTTGGGTTCTAACCTGTTGCCT (site AGAATATCTAG)”, the “recombinant barcode read abundance (log10)” value was 0.21.
For “AGATTATCTTGGGTTCTAACCTGTTGCCT (site AGATTATCTAG)”, the “recombinant barcode read abundance (log10)” value was 1.32.
For “AGCAGCACTTGGGTTCTAACCTGTTGCCT (site AGCAGCACTAG)”, the “recombinant barcode read abundance (log10)” value was 0.731.
For “AGCAGCACTTGGGTTCTAACCTGTTGCCT (site CGCAGCACTAG)”, the “recombinant barcode read abundance (log10)” value was 0.298.
For “AGCAGTACTTGGGTTCTAACCTGTTGCTA (site AGCAGTACTTA)”, the “recombinant barcode read abundance (log10)” value was 0.299.
For “AGCAGTACTTGGGTTCTAACCTGTTGCTA (site TTGGAGGCTAG)”, the “recombinant barcode read abundance (log10)” value was 0.248.
In the case of “AGCATCTCTTGGGTTCTAACCTGTTGCCG (site AGCATCTCTCG)”, the “recombinant barcode read abundance (log10)” value is reported as 0.222.
For “AGCATCTCTTGGGTTCTAACCTGTTGCCG (site CCTTGTACTAA)”, the “recombinant barcode read abundance (log10)” value was 0.0503.
In the case of “AGCATTCCTTGGGTTCTAACCTGTTGCCT (site AGCAGTGCTAG)”, the “recombinant barcode read abundance (log10)” value is reported as 0.144.

From the supplement of paper PMC11208160
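Also: IS621 recombinase and bridge RNA in Escherichia coli cells.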
